Reference: ChEMBL document CHEMBL3784918, “Novel 2,4-diaminopyrimidines bearing tetrahydronaphthalenyl moiety against anaplastic lymphoma kinase (ALK): Synthesis, in vitro, ex vivo, and in vivo efficacy studies” (Bioorg Med Chem Lett, 2016)
Calls of active or inactive are those of the source. No cut-off for these calls is given here.

Assays:
EML4-ALK (Homo sapiens) = EML4-ALK (Homo sapiens) (UniProt Q9UM73+Q9HC35); test: Inhibition of EML4-ALK in human NCI-H3122 cells assessed as inhibition of cell proliferation after 72 hrs by SRB assay; format: cell-based
Sequence of EML4-ALK (Homo sapiens) (Q9HC35 whole entry partner): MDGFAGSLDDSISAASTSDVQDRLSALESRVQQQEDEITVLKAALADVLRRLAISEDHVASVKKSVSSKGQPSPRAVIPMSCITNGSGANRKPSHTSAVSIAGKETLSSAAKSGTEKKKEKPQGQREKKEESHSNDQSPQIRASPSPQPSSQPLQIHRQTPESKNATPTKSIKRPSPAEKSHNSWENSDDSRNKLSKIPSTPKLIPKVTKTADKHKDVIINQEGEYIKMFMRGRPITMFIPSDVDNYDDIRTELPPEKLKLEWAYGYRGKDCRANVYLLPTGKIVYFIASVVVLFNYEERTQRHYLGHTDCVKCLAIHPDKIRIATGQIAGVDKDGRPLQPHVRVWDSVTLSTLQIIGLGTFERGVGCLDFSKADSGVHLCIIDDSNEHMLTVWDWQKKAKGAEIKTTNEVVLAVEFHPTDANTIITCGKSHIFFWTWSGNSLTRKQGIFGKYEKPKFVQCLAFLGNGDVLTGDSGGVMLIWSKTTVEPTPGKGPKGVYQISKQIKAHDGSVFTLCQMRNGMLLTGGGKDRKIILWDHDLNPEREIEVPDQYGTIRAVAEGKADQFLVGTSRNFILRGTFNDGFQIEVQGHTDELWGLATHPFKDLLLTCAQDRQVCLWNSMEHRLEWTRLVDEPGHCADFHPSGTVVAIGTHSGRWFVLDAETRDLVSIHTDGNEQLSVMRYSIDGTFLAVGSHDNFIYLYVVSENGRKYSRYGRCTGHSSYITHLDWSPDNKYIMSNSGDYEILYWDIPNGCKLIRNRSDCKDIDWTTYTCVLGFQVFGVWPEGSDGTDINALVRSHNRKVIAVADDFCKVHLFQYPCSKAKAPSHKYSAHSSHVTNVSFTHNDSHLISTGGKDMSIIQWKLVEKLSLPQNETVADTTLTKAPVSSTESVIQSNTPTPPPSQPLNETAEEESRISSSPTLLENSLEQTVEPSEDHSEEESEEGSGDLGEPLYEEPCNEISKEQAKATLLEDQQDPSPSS
Sequence of EML4-ALK (Homo sapiens) (Q9UM73 19-1620 limits assumed): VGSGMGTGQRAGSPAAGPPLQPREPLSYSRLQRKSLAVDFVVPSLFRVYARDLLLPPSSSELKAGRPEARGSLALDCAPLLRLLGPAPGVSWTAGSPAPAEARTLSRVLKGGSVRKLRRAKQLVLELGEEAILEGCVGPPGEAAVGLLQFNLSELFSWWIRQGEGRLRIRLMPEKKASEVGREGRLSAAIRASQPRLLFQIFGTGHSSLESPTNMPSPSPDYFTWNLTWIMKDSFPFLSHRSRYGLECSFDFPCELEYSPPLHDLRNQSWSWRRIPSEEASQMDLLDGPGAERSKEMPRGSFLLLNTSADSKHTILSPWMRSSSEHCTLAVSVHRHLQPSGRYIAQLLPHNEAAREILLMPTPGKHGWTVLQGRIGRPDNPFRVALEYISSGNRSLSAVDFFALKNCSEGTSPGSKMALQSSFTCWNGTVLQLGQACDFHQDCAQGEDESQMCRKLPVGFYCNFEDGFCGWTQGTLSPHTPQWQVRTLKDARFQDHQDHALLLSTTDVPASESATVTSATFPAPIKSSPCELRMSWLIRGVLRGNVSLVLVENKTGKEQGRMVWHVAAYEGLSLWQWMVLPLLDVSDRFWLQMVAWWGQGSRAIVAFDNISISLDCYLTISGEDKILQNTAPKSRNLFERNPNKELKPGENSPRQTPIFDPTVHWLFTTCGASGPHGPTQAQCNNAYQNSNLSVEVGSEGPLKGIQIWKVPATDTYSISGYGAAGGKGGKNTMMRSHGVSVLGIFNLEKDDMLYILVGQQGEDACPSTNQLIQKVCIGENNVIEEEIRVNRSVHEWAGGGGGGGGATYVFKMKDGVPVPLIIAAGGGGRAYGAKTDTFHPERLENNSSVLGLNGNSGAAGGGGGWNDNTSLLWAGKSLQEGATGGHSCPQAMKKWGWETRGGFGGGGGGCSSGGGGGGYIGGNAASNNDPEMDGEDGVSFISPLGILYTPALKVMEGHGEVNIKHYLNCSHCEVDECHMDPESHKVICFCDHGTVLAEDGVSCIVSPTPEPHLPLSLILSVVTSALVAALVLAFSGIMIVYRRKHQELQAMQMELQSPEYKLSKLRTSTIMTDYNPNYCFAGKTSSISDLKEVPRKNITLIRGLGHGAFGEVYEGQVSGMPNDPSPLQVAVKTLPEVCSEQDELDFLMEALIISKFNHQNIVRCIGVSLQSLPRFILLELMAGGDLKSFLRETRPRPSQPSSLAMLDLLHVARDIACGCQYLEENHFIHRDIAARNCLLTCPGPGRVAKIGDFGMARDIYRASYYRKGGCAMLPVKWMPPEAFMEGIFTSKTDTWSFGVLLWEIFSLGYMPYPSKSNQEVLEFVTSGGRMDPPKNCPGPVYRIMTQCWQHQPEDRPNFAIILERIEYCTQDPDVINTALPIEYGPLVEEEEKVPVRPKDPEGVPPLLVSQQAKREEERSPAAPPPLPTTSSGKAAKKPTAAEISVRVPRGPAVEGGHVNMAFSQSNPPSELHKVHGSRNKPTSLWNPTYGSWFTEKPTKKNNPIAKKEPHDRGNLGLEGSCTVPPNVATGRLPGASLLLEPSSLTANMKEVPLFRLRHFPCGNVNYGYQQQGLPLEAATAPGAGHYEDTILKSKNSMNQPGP

[1] = biological target: ALK tyrosine kinase receptor (Homo sapiens, UniProt Q9UM73); test: Inhibition of wild type ALK (unknown origin) after 30 mins by HTRF assay
Sequence of ALK tyrosine kinase receptor (Homo sapiens, UniProt Q9UM73) (Q9UM73 whole entry): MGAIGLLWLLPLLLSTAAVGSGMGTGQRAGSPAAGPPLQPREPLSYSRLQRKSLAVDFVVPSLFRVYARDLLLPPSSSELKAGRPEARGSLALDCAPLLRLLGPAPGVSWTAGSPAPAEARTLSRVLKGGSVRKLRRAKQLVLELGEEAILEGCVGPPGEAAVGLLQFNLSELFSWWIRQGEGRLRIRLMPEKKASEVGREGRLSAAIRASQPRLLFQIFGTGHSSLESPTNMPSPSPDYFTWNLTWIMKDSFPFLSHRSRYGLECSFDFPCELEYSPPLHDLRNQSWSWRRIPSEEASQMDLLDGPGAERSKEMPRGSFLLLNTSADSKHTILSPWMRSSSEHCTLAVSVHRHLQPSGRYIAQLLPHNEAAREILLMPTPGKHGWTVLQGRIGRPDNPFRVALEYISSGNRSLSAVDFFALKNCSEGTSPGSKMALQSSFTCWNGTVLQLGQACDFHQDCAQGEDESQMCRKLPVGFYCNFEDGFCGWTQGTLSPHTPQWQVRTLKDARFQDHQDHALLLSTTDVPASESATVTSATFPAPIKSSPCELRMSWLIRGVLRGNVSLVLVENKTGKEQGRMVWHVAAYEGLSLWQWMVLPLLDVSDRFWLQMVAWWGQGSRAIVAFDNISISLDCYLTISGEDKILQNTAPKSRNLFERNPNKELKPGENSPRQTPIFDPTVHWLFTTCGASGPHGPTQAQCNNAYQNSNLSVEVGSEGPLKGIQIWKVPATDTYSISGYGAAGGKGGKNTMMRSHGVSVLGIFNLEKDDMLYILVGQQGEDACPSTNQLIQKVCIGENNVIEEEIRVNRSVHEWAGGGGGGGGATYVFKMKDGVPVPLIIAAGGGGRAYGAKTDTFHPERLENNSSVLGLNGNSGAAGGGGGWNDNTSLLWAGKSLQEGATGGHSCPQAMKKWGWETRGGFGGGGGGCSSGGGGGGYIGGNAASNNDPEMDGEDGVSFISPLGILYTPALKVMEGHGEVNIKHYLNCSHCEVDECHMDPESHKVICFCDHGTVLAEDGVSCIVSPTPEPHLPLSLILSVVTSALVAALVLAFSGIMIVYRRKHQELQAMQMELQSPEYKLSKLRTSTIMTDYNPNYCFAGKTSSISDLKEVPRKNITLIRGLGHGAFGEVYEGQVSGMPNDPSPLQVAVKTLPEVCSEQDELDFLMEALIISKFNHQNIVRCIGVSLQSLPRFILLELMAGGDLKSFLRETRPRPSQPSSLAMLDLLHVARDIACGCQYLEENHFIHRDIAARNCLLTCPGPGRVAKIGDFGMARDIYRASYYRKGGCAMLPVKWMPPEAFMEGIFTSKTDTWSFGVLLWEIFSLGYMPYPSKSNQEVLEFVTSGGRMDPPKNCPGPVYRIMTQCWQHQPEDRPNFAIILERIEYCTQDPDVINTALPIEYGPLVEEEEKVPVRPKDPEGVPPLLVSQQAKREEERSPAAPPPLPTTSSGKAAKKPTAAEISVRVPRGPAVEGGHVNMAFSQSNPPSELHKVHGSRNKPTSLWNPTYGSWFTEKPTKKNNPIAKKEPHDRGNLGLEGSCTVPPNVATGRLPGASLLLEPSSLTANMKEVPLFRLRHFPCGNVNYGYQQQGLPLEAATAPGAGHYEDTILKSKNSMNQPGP

BaF3 = test: Inhibition of ALK L1196M mutant in mouse BA/F3 cells assessed as inhibition of cell proliferation after 72 hrs by WST1 assay; format: cell-based
[2] = biological target: ALK tyrosine kinase receptor (Homo sapiens, UniProt Q9UM73, L1196M); test: Inhibition of ALK L1196M mutant (unknown origin) after 30 mins by HTRF assay
Sequence of ALK tyrosine kinase receptor (Homo sapiens, UniProt Q9UM73, L1196M) (Q9UM73 19-1620 L1196M limits assumed): as the sequence (Q9UM73 19-1620 limits assumed) above, with L1178M counted along it

NCI-H3122 = test: Antitumor activity against human NCI-H3122 cells xenografted in SCID mouse assessed as tumor growth inhibition at 50 mg/kg, po administered qd for 14 days; format: functional, organism-based

Row | SMILES | CC50 (EML4-ALK (Homo sapiens)) [nM] | IC50 [1] [nM] | CC50 (BaF3) [nM] | IC50 [2] [nM] | TGI (NCI-H3122)
1 | COc1cc2c(cc1Nc1ncc(Cl)c(Nc3ccccc3S(=O)(=O)C(C)C)n1)CC/C(=N\NC(N)=O)C2(C)C | 117 | 29 | 334 | 42 | –
2 | Cc1cc(Nc2ncc(Cl)c(Nc3ccccc3S(=O)(=O)C(C)C)n2)c(OC(C)C)cc1C1CCNCC1 | 38 | – | 75 | – | Active
3 | COc1cc2c(cc1Nc1ncc(Cl)c(Nc3ccccc3S(=O)(=O)C(C)C)n1)C(C)(C)C(=O)CC2 | – | – | 2000 | – | –
4 | COc1cc2c(cc1Nc1ncc(Cl)c(Nc3ccccc3S(=O)(=O)C(C)C)n1)CC/C(=N\NC(C)=O)C2(C)C | 128 | 21 | 314 | 40 | –
5 | COc1cc2c(cc1Nc1ncc(Cl)c(Nc3ccccc3S(=O)(=O)C(C)C)n1)C(C)(C)C(N)CC2 (stereo not drawn) | 2090 | 27 | 1750 | 94 | –
6 | COc1cc2c(cc1Nc1ncc(Cl)c(Nc3ccccc3S(=O)(=O)C(C)C)n1)CCC(NC(=O)CO)C2(C)C (stereo not drawn) | 44 | 6.1 | 86 | 9.9 | –
7 | COc1cc2c(cc1Nc1ncc(Cl)c(Nc3ccccc3S(=O)(=O)C(C)C)n1)CC/C(=N\NC(=N)N)C2(C)C | 235 | 18 | 1580 | 37 | –
8 | COc1cc2c(cc1Nc1ncc(Cl)c(Nc3ccccc3S(=O)(=O)C(C)C)n1)C(C)(C)/C(=N/N1CCOCC1)CC2 | 732 | 122 | 1640 | 222 | –
9 | COc1cc2c(cc1Nc1ncc(Cl)c(Nc3ccccc3S(=O)(=O)C(C)C)n1)C(C)(C)/C(=N/NC(=N)N)CC2 | 2400 | 16 | 2090 | 100 | –
10 | COc1cc2c(cc1Nc1ncc(Cl)c(Nc3ccccc3S(=O)(=O)C(C)C)n1)C(C)(C)/C(=N/NC(C)=O)CC2 | 146 | 52 | 640 | 201 | –
11 | COc1cc2c(cc1Nc1ncc(Cl)c(Nc3ccccc3S(=O)(=O)C(C)C)n1)CCC(NC(=O)CN(C)C)C2(C)C (stereo not drawn) | 39 | 4.2 | 71 | 3.6 | –
12 | COc1cc2c(cc1Nc1ncc(Cl)c(Nc3ccccc3S(=O)(=O)C(C)C)n1)C(C)(C)/C(=N/O)CC2 | 1220 | 424 | 1360 | 600 | –
13 | COc1cc2c(cc1Nc1ncc(Cl)c(Nc3ccccc3S(=O)(=O)C(C)C)n1)C(C)(C)/C(=N/N1CCN(C)CC1)CC2 | 2830 | 44 | 2600 | 200 | –
14 | COc1cc2c(cc1Nc1ncc(Cl)c(Nc3ccccc3S(=O)(=O)C(C)C)n1)CCC(=O)C2(C)C | – | – | 432 | – | –
15 | COc1cc2c(cc1Nc1ncc(Cl)c(Nc3ccccc3S(=O)(=O)C(C)C)n1)C(C)(C)C(O)CC2 (stereo not drawn) | 726 | 34 | 1600 | 109 | –
16 | COc1cc2c(cc1Nc1ncc(Cl)c(Nc3ccccc3S(=O)(=O)C(C)C)n1)C(C)(C)/C(=N/NC(N)=O)CC2 | 146 | 16 | 400 | 97 | –
17 | COc1cc2c(cc1Nc1ncc(Cl)c(Nc3ccccc3S(=O)(=O)C(C)C)n1)CC/C(=N\O)C2(C)C | 276 | 212 | 1530 | – | –
18 | COc1cc2c(cc1Nc1ncc(Cl)c(Nc3ccccc3S(=O)(=O)C(C)C)n1)CCC(O)C2(C)C (stereo not drawn) | 99 | 21 | 299 | 56 | –
19 | COc1cc2c(cc1Nc1ncc(Cl)c(Nc3ccccc3S(=O)(=O)C(C)C)n1)CC/C(=N\N1CCOCC1)C2(C)C | 30 | 40 | 416 | 40 | –
